From patent publication US12534477B2, “Compound having KHK inhibitory effect” (HANGZHOU ZHONGMEIHUADONG PHARMACEUTICAL CO., LTD., priority 2019, dated 2026)

Target: Recombinant Human Ketohexokinase (KHK) (Homo sapiens (Human), UniProt P50053)
Experiment: Ketohexokinase assay (KHK assay), ADP-Glo
Format: biochemical
Conditions: not given
Protocol: • 1. EnVision multilabel reader, Perkin Elmer; • 2. OptiPlate 384-well microplate, Perkin Elmer, Cat. No. 6007290; • 3. Recombinant Human Ketohexokinase (KHK), R&D Cat. No.: 8177-HK-020, Lot No.: DDFK0117092; • 4. Fructose (D(−)-Fructose), SCR Cat. No.: 36003034; and • 5. ADP-Glo kinase assay kit, Promega_Cat. No.: V9101.
1. preparation of Dilution Buffer containing 50 mM hydroxyethylpiperazine […] (Hepes), 140 mM KCl, 3.5 mM MgCl2, and 0.01% bovine serum albumin (BSA), pH 7.4.
2. A working solution of ketohexokinase at 2.5 times concentration was prepared with Dilution Buffer, with 50 nM ketohexokinase and 12.5 mM fructose.
3. A working solution of adenosine triphosphate (ATP) at 2.5 times concentration was prepared with Dilution Buffer, with a concentration of 250 μM.
4. Each compound was diluted starting at a concentration of 500 μM, 3-fold diluted for 9 concentration points. The final concentration of the compound in the reaction system started from 10 μM and the final concentration of dimethyl sulfoxide (DMSO) was 2%.
5. A 96-well plate was prepared as a reaction plate, and was incubated at room temperature for 5 min after adding 6 μL ketohexokinase working solution at 2.5 times concentration to each well and further adding 3 μL compound working solution to each well.
6. The first well of each row was a positive control for a compound, i.e. the same volume of the buffer was added to replace the compound and ketohexokinase. The last well was a negative control for the compound, i.e. the same volume of Dilution Buffer was added instead of the compound.
7. 6 μL ATP working solution was added to each well in a 96-well reaction plate to initiate the kinase reaction. The kinase reaction was incubated in a constant temperature heater at 28° C. for 1 h.
1. A384 plate was prepared as a detection plate, and firstly 5 μL ADP-Glo reagent was added.
2. 5 μL kinase reaction mixture from the reaction plate was added to each well and incubated in a constant temperature heater at 28° C. for 30 min.
3. 10 μL kinase detection reagent was added to each well and incubated in a constant temperature heater at 28° C. for 30 min.
4. The detection plate was placed in an EnVision multilabel reader to read the chemiluminescent signal.

Sequence of Recombinant Human Ketohexokinase (KHK) (P50053 whole entry): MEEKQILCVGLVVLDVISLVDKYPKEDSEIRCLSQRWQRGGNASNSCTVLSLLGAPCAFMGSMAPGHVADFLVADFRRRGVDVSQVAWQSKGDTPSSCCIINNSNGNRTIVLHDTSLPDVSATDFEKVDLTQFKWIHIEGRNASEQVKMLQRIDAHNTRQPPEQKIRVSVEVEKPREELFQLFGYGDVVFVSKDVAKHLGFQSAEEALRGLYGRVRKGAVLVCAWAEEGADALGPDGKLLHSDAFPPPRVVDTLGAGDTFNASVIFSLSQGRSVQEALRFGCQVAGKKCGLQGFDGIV

Row | Compound | IC50 [nM]
1 | C[C@H]1CCN1c1nc(N2CC3(C2)CC3(C)C(=O)O)c2cc(Cl)sc2n1 (stereo partly shown) [WX049] | 210
2 | C[C@H]1CCN1c1nc(N2CC3(C[C@H]3C(=O)O)C2)c2cc(Cl)sc2n1 [WX044] | 81
3 | C[C@H]1CCN1c1nc(NC2CC(C(=O)O)C2)c2ccsc2n1 (stereo partly shown) [WX032] | 150
4 | C[C@H]1CCN1c1nc(N2CC3(CC3C(=O)O)C2)c2cccc(Cl)c2n1 (stereo partly shown) [WX050] | 260
5 | C[C@H]1CCN1c1nc(NC2CC3(C2)CC3C(=O)O)c2cc(Cl)sc2n1 (stereo partly shown) [WX051] | 69
6 | C[C@H]1CCN1c1nc(N2CC[C@H](CC(=O)O)C2)c2ccsc2n1 [WX025] | 240
7 | C[C@H]1CCN1c1nc(N2CC(CC(=O)O)C2)c2ccsc2n1 [WX018] | 390
8 | C[C@H]1CCN1c1nc(-c2cccc(CCC(=O)O)n2)c2ccsc2n1 [WX047] | 630
9 | C[C@H]1CCN1c1nc(N2CC3(CCC3C(=O)O)C2)c2cc(Cl)sc2n1 (stereo partly shown) [WX038] | 480
10 | C[C@H]1CCN1c1nc2c(c(N3C[C@@H]4[C@@H](CC(=O)O)[C@@H]4C3)n1)CSC2 [WX021] | 160
11 | C[C@H]1CCN1c1nc(N2CC3(C[C@H]3CC(=O)O)C2)c2ccsc2n1 [WX055] | 650
12 | C[C@H]1CCN1c1nc(N2CC3(C[C@H]3C(=O)O)C2)c2ccsc2n1 [WX019] | 110
13 | C[C@H]1CCN1c1nc(N2CC3(CC3C(=O)O)C2)c2cccc(F)c2n1 (stereo partly shown) [WX034] | 110
14 | C[C@H]1CCN1c1nc(N2CC3(C[C@@H]3CC(=O)O)C2)c2ccsc2n1 [WX054] | 1000
15 | C[C@H]1CCN1c1nc(N2C[C@@H]3[C@@H](CC(=O)O)[C@@H]3C2)c2c(F)csc2n1 [WX030] | 31
16 | C[C@H]1CCN1c1nc(-c2cncc(OCC(=O)O)c2)c2ccsc2n1 [WX039] | 36
17 | C[C@H]1CCN1c1nc(Nc2ccc(C(=O)O)cc2)c2ccsc2n1 [WX012] | 9.4
18 | C[C@H]1CCN1c1nc(Nc2cc(F)c(C(=O)O)c(F)c2)c2ccsc2n1 [WX015] | 6.7
19 | C[C@H]1CCN1c1nc(N2C[C@@H]3[C@@H](CC(=O)O)[C@@H]3C2)c2cccc(F)c2n1 [WX024] | 61
20 | C[C@H]1CCN1c1nc(Nc2cc(F)c(CC(=O)O)c(F)c2)c2ccsc2n1 [WX014] | 14
21 | C[C@H]1CCN1c1nc(Nc2ccc(CC(=O)O)cc2)c2ncsc2n1 [WX003] | 110
22 | C[C@H]1CCN1c1nc(N2CC3(C[C@H]3C(=O)O)C2)c2cccc(F)c2n1 [WX040] | 320
23 | C[C@H]1CCN1c1nc(Nc2ccc(CC(=O)O)c(F)c2)c2ccsc2n1 [WX010] | 15

Row | Compound | IC50 [nM]
24 | C[C@H]1CCN1c1nc(N2CCC3(CC3C(=O)O)C2)c2ccsc2n1 (stereo partly shown) [WX027] | 250
25 | C[C@H]1CCN1c1nc(Nc2ccc(C(=O)O)c(C#N)c2)c2ccsc2n1 [WX011] | 17
26 | C[C@H]1CCN1c1nc(-c2ccc(CC(=O)O)c(F)c2)c2ccsc2n1 [WX022] | 200
27 | C[C@H]1CCN1c1nc(N2C[C@@H]3[C@@H](CC(=O)O)[C@@H]3C2)c2cc(F)sc2n1 [WX028] | 50
28 | C[C@H]1CCN1c1nc(N2C[C@@H]3[C@@H](CC(=O)O)[C@@H]3C2)c2cc(Cl)sc2n1 [WX029] | 28
29 | C[C@H]1CCN1c1nc(N2C[C@@H]3[C@@H](CC(=O)O)[C@@H]3C2)c2sccc2n1 [WX046] | 700
30 | C[C@H]1CCN1c1nc(N2CC3(CC3C(=O)O)C2)c2ccsc2n1 (stereo partly shown) [WX009] | 100
31 | C[C@H]1CCN1c1nc(-c2cccc(/C=C/C(=O)O)c2)c2ccsc2n1 [WX017] | 20
32 | C[C@H]1CCN1c1nc(-c2cccc(CCC(=O)O)c2)c2ccsc2n1 [WX016] | 32
33 | Cc1csc2nc(N3CC[C@@H]3C)nc(Nc3ccc(CC(=O)O)cc3)c12 [WX007] | 16
34 | C[C@H]1CCN1c1nc(N2C[C@@H]3[C@@H](CC(=O)O)[C@@H]3C2)c2scc(C#N)c2n1 [WX023] | 210
35 | Cc1csc2nc(N3CC[C@@H]3C)nc(N3C[C@@H]4C(CC(=O)O)[C@@H]4C3)c12 (stereo partly shown) [WX008] | 210
36 | C[C@H]1CCN1c1nc(N2CC3(CC3C(=O)O)C2)c2cc(Cl)sc2n1 (stereo partly shown) [WX036] | 69
37 | C[C@H]1CCN1c1nc(N2C[C@@H]3[C@@H](CC(=O)O)[C@@H]3C2)nc2ncsc12 [WX005] | 650
38 | C[C@H]1CCN1c1nc(N2CC3(C[C@@H]3C(=O)O)C2)c2cccc(F)c2n1 [WX041] | 52
39 | C[C@H]1CCN1c1nc(-c2cncc(CCC(=O)O)c2)c2ccsc2n1 [WX048] | 92
40 | C[C@H]1CCN1c1nc(N2CC3(C[C@@H]3C(=O)O)C2)c2cc(Cl)sc2n1 [WX045] | 30
41 | C[C@H]1CCN1c1nc(N2C[C@@H]3[C@@H](CC(=O)O)[C@@H]3C2)c2scnc2n1 [WX002] | 190
42 | C[C@H]1CCN1c1nc(N2CC3(CC3C(=O)O)C2)c2c(F)csc2n1 (stereo partly shown) [WX037] | 150
43 | C[C@H]1CCN1c1nc(N2CC3(C[C@@H]3CC(=O)O)C2)c2cc(Cl)sc2n1 [WX056] | 360
44 | C[C@H]1CCN1c1nc(-c2ccnc(CCC(=O)O)c2)c2ccsc2n1 [WX033] | 71
45 | C[C@H]1CCN1c1nc(N2CC3(C[C@H]3CC(=O)O)C2)c2cc(Cl)sc2n1 [WX057] | 200

System: not listed separately
Experiment: Liver-blood ratio, tissue distribution in rats
Format: in vivo, SD rats
Conditions: SD, rat, liver, 1 mg/kg, PO 1 mpk, 1.5 h, read-out: Liver tissue concentration
Protocol: Tissue distribution of compounds in SD rats was tested.
In the experiment, candidate compounds were formulated as clear solutions and administered to rats in a single oral dose (PO, 1 mpk). The vehicle for oral administration was a certain proportion of methylcellulose and Tween 80 in water. Whole blood was collected at a certain time and plasma was prepared, and tissues were collected at the corresponding time and prepared into tissue homogenates. Drug concentration was analyzed by LC-MS/MS, and pharmacokinetic parameters were calculated by Phoenix WinNonlin software.

Row | Compound | concentration at 1.5 h [nM]
46 | C[C@H]1CCN1c1nc(Nc2ccc(C(=O)O)cc2)c2ccsc2n1 [WX012] | 2100

Same assay, conditions: SD, rat, liver, 1 mg/kg, PO 1 mpk, 2.0 h, read-out: Liver tissue concentration

Row | Compound | concentration at 2 h [nM]
47 | C[C@H]1CCN1c1nc(Nc2ccc(C(=O)O)cc2)c2ccsc2n1 [WX012] | 618

Same assay, conditions: SD, rat, liver, 1 mg/kg, PO 1 mpk, 6.0 h, read-out: Liver tissue concentration

Row | Compound | concentration at 6 h [nM]
48 | C[C@H]1CCN1c1nc(Nc2ccc(C(=O)O)cc2)c2ccsc2n1 [WX012] | 634

Same assay, conditions: SD, rat, liver/plasma, 1 mg/kg, PO 1 mpk, 1.5 h, read-out: Liver-blood ratio

Row | Compound | Kp at 1.5 h
49 | C[C@H]1CCN1c1nc(Nc2ccc(C(=O)O)cc2)c2ccsc2n1 [WX012] | 2.62

Same assay, conditions: SD, rat, liver/plasma, 1 mg/kg, PO 1 mpk, 2.0 h, read-out: Liver-blood ratio

Row | Compound | Kp at 2 h
50 | C[C@H]1CCN1c1nc(Nc2ccc(C(=O)O)cc2)c2ccsc2n1 [WX012] | 2.32

Same assay, conditions: SD, rat, liver/plasma, 1 mg/kg, PO 1 mpk, 6.0 h, read-out: Liver-blood ratio

Row | Compound | Kp at 6 h
51 | C[C@H]1CCN1c1nc(Nc2ccc(C(=O)O)cc2)c2ccsc2n1 [WX012] | 4.39

Same assay, conditions: SD, rat, plasma, 1 mg/kg, PO 1 mpk, 1.5 h, read-out: Plasma concentration

Row | Compound | concentration at 1.5 h [nM]
52 | C[C@H]1CCN1c1nc(Nc2ccc(C(=O)O)cc2)c2ccsc2n1 [WX012] | 810

Same assay, conditions: SD, rat, plasma, 1 mg/kg, PO 1 mpk, 2.0 h, read-out: Plasma concentration

Row | Compound | concentration at 2 h [nM]
53 | C[C@H]1CCN1c1nc(Nc2ccc(C(=O)O)cc2)c2ccsc2n1 [WX012] | 273

Same assay, conditions: SD, rat, plasma, 1 mg/kg, PO 1 mpk, 6.0 h, read-out: Plasma concentration

Row | Compound | concentration at 6 h [nM]
54 | C[C@H]1CCN1c1nc(Nc2ccc(C(=O)O)cc2)c2ccsc2n1 [WX012] | 145

System: fructose metabolism in mice
Experiment: Acute fructose feeding experiment in mice
Format: in vivo
Conditions: compound 30 mpk, oral fructose 1 g/kg
Protocol: The effect of test compounds on the fructose content in mice with high fructose intake was investigated.
All animals were acclimated for one week in an animal house, fed with normal chow and fasted for 16 hours before being given fructose.
1) The experiment began at −0.5 hr. A control group was given a certain volume of vehicle (a certain proportion of methylcellulose and Tween 80 in water), and an experimental group was given a certain dose of a solution of the compound (the administered volume was consistent with the vehicle).
2) 0.5 hour later and before administration of a fructose solution, a blood sample was collected at 0 hr, followed by oral administration of 1 g/kg of an aqueous fructose solution.
3) After the administration of fructose, blood samples were collected from saphenous vein of mice at 0.25, 0.5, 1, 2, 3 and 8 hr, and fructose concentration was analyzed by LC-MS/MS.

Row | Compound | AUC of integral fructose concentration for dosed group [nM·h] | AUC of integral fructose concentration of dosed group/AUC of Integral fructose concentration of control group
55 | C[C@H]1CCN1c1nc(N2CC3(C[C@H]3C(=O)O)C2)c2ccsc2n1 [WX019] | 849 | 6.1
56 | C[C@H]1CCN1c1nc(N2C[C@@H]3[C@@H](CC(=O)O)[C@@H]3C2)c2c(F)csc2n1 [WX030] | 1029 | 9.2
57 | C[C@H]1CCN1c1nc(N2C[C@@H]3[C@@H](CC(=O)O)[C@@H]3C2)c2cccc(F)c2n1 [WX024] | 1858 | 13.4
58 | C[C@H]1CCN1c1nc(N2C[C@@H]3[C@@H](CC(=O)O)[C@@H]3C2)c2cc(Cl)sc2n1 [WX029] | 1687 | 15.1
59 | C[C@H]1CCN1c1nc(N2CC3(C[C@@H]3C(=O)O)C2)c2cccc(F)c2n1 [WX041] | 1704 | 6.5
